{"source": "patent US9382205B2", "about": "“Processes for the manufacture of a pharmaceutically active agent” (H. Lundbeck A/S, priority 2009, dated 2016)", "origin": "cited, not measured here", "key": {"Alzheimer's patients": {"system": "Alzheimer's patients", "conditions": "first report"}, "[1]": {"conditions": "Rogers et al. 1999"}, "human 5-HT6 receptor": {"molecular_target": "human 5-HT6 receptor", "conditions": "from Roth et al. 1994"}}}
{"smiles": "O=S(=O)(c1ccccc1)c1cnc2c(N3CCNCC3)cccc2c1", "note": "[SB-742457]", "values": [{"measurement": "clinical benefit", "setting": "Alzheimer's patients", "result": "of clinical benefit"}]}
{"smiles": "COc1ccc(NS(=O)(=O)c2sc3ccc(Cl)cc3c2C)cc1N1CCNCC1", "note": "[SB-271046]", "values": [{"measurement": "performance in the Morris water maze", "setting": "[1]", "result": "improved performance"}, {"measurement": "spatial alternation operant behavior test", "setting": "aged rats", "result": "improvements"}]}
{"smiles": "CN(C)CCC=C1c2ccccc2CCc2ccccc21", "note": "[amitriptyline]", "values": [{"measurement": "Ki", "setting": "human 5-HT6 receptor", "result": 65, "unit": "nM"}]}
